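The concentration for 50% growth inhibition is given as GI50. TGI: total growth inhibition.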
How the values were obtained:
Assay in all cases: NCI-60 cell line screen, 384-well format
NCI/ADR-RES ovarian = test system: NCI/ADR-RES ovarian
CAKI-1 renal = test system: CAKI-1 renal
OVCAR-8 ovarian = test system: OVCAR-8 ovarian
RXF 393 renal = test system: RXF 393 renal
MDA-MB-435 melanoma = test system: MDA-MB-435 melanoma
OVCAR-4 ovarian = test system: OVCAR-4 ovarian
EKVX NSCLC = test system: EKVX NSCLC
CCRF-CEM leukemia = test system: CCRF-CEM leukemia
UACC-257 melanoma = test system: UACC-257 melanoma
NCI-H522 lung = test system: NCI-H522 lung
NCI-H226 lung = test system: NCI-H226 lung
SNB-75 CNS = test system: SNB-75 CNS
SF-268 CNS = test system: SF-268 CNS

`COCCOc1cnc2ccn([C@H](C)c3nnc4c(F)cc(-c5cnn(C)c5)cn34)c(=O)c2c1` was tested, and the GI50 (NCI/ADR-RES ovarian) was > 100 µM, the TGI (NCI/ADR-RES ovarian) was > 100 µM and the GI50 (CAKI-1 renal) was > 56.9 µM. The TGI (CAKI-1 renal) was > 100 µM, the GI50 (OVCAR-8 ovarian) was > 100 µM and the TGI (OVCAR-8 ovarian) was > 100 µM. The GI50 (RXF 393 renal) was > 100 µM, the TGI (RXF 393 renal) was > 100 µM and the GI50 (MDA-MB-435 melanoma) was > 100 µM. The TGI (MDA-MB-435 melanoma) was > 100 µM, the GI50 (OVCAR-4 ovarian) was 98 µM and the TGI (OVCAR-4 ovarian) was > 100 µM. The GI50 (EKVX NSCLC) was > 100 µM, the TGI (EKVX NSCLC) was > 100 µM and the GI50 (CCRF-CEM leukemia) was > 100 µM. For the same compound, the TGI (CCRF-CEM leukemia) was > 100 µM, the GI50 (UACC-257 melanoma) was > 100 µM and the TGI (UACC-257 melanoma) was > 100 µM. The GI50 (NCI-H522 lung) was > 100 µM, the TGI (NCI-H522 lung) was > 100 µM and the GI50 (NCI-H226 lung) was > 100 µM. For the same compound, the TGI (NCI-H226 lung) was > 100 µM, the GI50 (SNB-75 CNS) was > 100 µM and the TGI (SNB-75 CNS) was > 100 µM. For the same compound, the GI50 (SF-268 CNS) was > 100 µM and the TGI (SF-268 CNS) was > 100 µM.
